# Measured values as given in patent US10722484B2, “Methods of cancer treatment” (K-Gen, Inc., priority 2016, dated 2020).
# Like-named read-outs stand apart in the source and are kept apart here.
# What was measured:
# [1] = system: BxPC-3; experiment: Proliferation assay (CellTiter Glo); assay type: cell-based; details: BxPC-3 (RAS WT); 96 hours
# [2] = system: Colo205; experiment: Proliferation assay (CellTiter Glo); assay type: cell-based; details: Colo205 (RAS WT); 96 hours
# [3] = system: H838; experiment: Proliferation assay (CellTiter Glo); assay type: cell-based; details: H838 (RAS WT); 96 hours
# [4] = system: HT29; experiment: Proliferation assay (CellTiter Glo); assay type: cell-based; details: HT29 (RAS WT); 96 hours
# [5] = system: RPMI8226; experiment: Proliferation assay (CellTiter Glo); assay type: cell-based; details: RPM18226; 96 hours
# [6] = system: H1915; experiment: Proliferation assay (CellTiter Glo); assay type: cell-based; details: H1915 (RAS WT); 96 hours
# [7] = system: SW900; experiment: Proliferation assay (CellTiter Glo); assay type: cell-based; details: SW900 (K-RAS: G12V); 96 hours
# [8] = system: A549 cells; experiment: Soft agar colony formation assay; assay type: cell-based; details: for number of colonies formed in soft agar: 7-10 days, 9-point 3-fold dilution series
# Experimental: To prepare a base agar layer (0.6%), melted 1.2% agar solution was mixed 1:1 (v/v) with 2×DMEM/20% FBS medium in a tube by inverting several times, and 50 μL of the mixture was immediately transferred to a well in a 96-well flat-bottom microplate. The plate was placed at 4° C. for 30 minutes to allow the base agar layer to solidify. Then, the cell agar layer (agar 0.4%) was prepared by transferring 75 μL of the cell and agar mixture containing 1:1:1 (v/v/v) of 1.2% agar solution, 2×DMEM/20% FBS and cell suspension (0.4-4×10E5/mL) to each well of the plates so that each well contained 1000-10000 cells per well. The plates were placed at 4° C. for 15 minutes and then 75 μL of media was added to each well. After incubating the plates overnight in a CO2 incubator, 50 μL of media with or without 5× final concentrations of compounds were added to each well. Each compound was tested in 9-point 3-fold dilution series. The plates were incubated for 7-10 days at 37° C. At the end of incubation period, 28 μL of Calcein AM solution (5 μM) was added to the center of each well. The plates were incubated at 37° C. for 45 minutes before scanning on Acumen (TTP Labtech). Each compound was tested in triplicates. Data was analyzed and compound EC50s were calculated using GraphPad Prism 5.
# [9] = system: phospho-PKC (pan); experiment: Western blot analysis of PKC signaling pathway elements in A549 cells; assay type: cell-based; details: for phospho-PKC (pan) levels: 48 hours, K103, K102 at 0.5 μM, K101A at […]
# Experimental: (§1) Cancer cells (2-8 million cells) were seeded in 10 cm dishes and grown overnight. For A549 lung cancer cell line, about 3 million cells were seeded. Cells were then treated with different drugs at concentrations described in Table 8 for a period of time up to 48 hours. Cells were lysed in 0.3-0.5 mL of RIPA buffer (Sigma) supplemented with protease inhibitors (Roche) and phosphatase inhibitors (Sigma). Lysates were assayed for protein concentration using BCA kit (Pierce). Normalized amount of lysates (20-30 μg protein/lane) were run on 4-12% NuPage gel (Life Technologies) and the proteins were transferred to the PVDF or nitrocellulose membrane using iBlot® Transfer Stack (Life Technologies). The membranes were probed with primary antibodies shown in Table 9 at 4° C. overnight after blocking with 1×TBST containing 5% non-fat milk. Antibodies from other vendors could also be used in Western blot analysis. After washing 5 times with 1×TBS containing 0.1% Tween20, the membranes were probed with 2nd antibodies Anti-mouse IgG Dylight 800 conjugate or Anti-rabbit IgG DyLight 680 conjugate (1:10000; Cell signaling or similar IR 2nd antibodies from different vendors) at room temperature for one hour. After washing 5 times, the membranes were scanned using Odyssey® Imaging System (Licor Biosciences).
# [10] = system: leukemia inhibitory factor (LIF); experiment: as above; assay type: cell-based; details: for protein levels of the leukemia inhibitory factor (LIF): Western blot, concentrations of Table 8 (K101A 0.1, 0.5, […]; K101E […]; K102 0.1, 0.5 μM; K103 0.01 μM; Ref1 1 μM; Ref2 0.01 μM)
# Experimental: as §1
# [11] = system: MiaPaCa-2; experiment: Proliferation assay (CellTiter Glo); assay type: cell-based; details: 96 hours; for Top Inhibition %: % of top inhibition
# [12] = system: THP1; experiment: Proliferation assay (CellTiter Glo); assay type: cell-based, human; details: 96 hours; for Top Inhibition %: % of top inhibition
# Experimental: (§2) The dose range for most compounds was 4.6 nM-30 μM. The dose ranges for some compounds were adjusted downward to 0.46 nM-3 μM or 0.08 nM-0.5 μM or 0.03 nM-0.2 μM. […] The results are shown in Tables 3-6 for pancreatic cancer, lung cancer, colon/gastric cancer, and leukemia.
# [13] = system: HL60; experiment: Proliferation assay (CellTiter Glo); assay type: cell-based, human; details: 96 hours; for Top Inhibition %: % of top inhibition
# Experimental: as §2
# [14] = system: LS180; experiment: Proliferation assay (CellTiter Glo); assay type: cell-based; details: 96 hours; for Top Inhibition %: % of top inhibition
# Experimental: as §2
# [15] = system: A549; experiment: Proliferation assay (CellTiter Glo); assay type: cell-based; details: 96 hours; for Top Inhibition %: % of top inhibition
# Experimental: as §2
# [16] = system: SW620; experiment: Proliferation assay (CellTiter Glo); assay type: cell-based; details: 96 hours; for Top Inhibition %: % of top inhibition
# Experimental: as §2
# [17] = system: AsPC-1; experiment: Proliferation assay (CellTiter Glo); assay type: cell-based; details: 96 hours; for Top Inhibition %: % of top inhibition
# Experimental: as §2
# [18] = Homo sapiens, MIA PaCa-2, MiaPaCa-2 (K-RAS: G12C), absolute EC50, read-out: Ab EC50
# [19] = Homo sapiens, MIA PaCa-2, MiaPaCa-2, relative EC50, read-out: Re EC50
# [20] = Homo sapiens, THP-1, THP1 (N-RAS: G12D), absolute EC50, read-out: Ab EC50
# [21] = Homo sapiens, HL-60, HL60 (N-RAS: Q61L), absolute EC50, read-out: Ab EC50
# [22] = Homo sapiens, LS180 (K-RAS: G12D), absolute EC50, read-out: Ab EC50
# [23] = Homo sapiens, A549 (K-RAS: G12S), absolute EC50, read-out: Ab EC50
# [24] = Homo sapiens, SW-620, SW620 (K-RAS: G12V), absolute EC50, read-out: Ab EC50
# [25] = Homo sapiens, ASPC1, AsPC-1 (K-RAS: G12D), absolute EC50, read-out: Ab EC50
# [26] = Homo sapiens, ASPC1, AsPC-1, relative EC50, read-out: Re EC50
# [27] = Homo sapiens, THP-1, THP1, relative EC50, read-out: Re EC50
# [28] = Homo sapiens, HL-60, HL60, relative EC50, read-out: Re EC50
# [29] = Homo sapiens, A549, relative EC50, read-out: Re EC50
SMILES,Top Inhibition % [1],Top Inhibition % [2],Top Inhibition % [3],Top Inhibition % [4],Top Inhibition % [5],Top Inhibition % [6],Top Inhibition % [7],number of colonies formed in soft agar [8],protein levels of the leukemia inhibitory factor (LIF) [10],"EC50 [11, 18]","EC50 [11, 19]",Top Inhibition % ([11]; MiaPaCa-2),"EC50 [12, 20]",Top Inhibition % ([12]; THP1),Top Inhibition % ([13]; HL60),"EC50 [13, 21]",Top Inhibition % ([14]; LS180),Top Inhibition % ([15]; A549),Top Inhibition % ([16]; SW620),Top Inhibition % ([17]; AsPC-1),further results
"CCCCCCCCCCCCCC(=O)O[C@@H]1[C@@H](C)[C@@]2(O)[C@@H](C=C(CO)C[C@]3(O)C(=O)C(C)=C[C@@H]23)[C@@H]2C(C)(C)[C@]12OC(C)=O [Compound K103, 12-O-Tetradecanoylphorbol-13-acetate]",44.46%,86.8%,15.5%,20.9%,32.75%,27.9%,18.7%,reduced the number of colonies formed by A549 cells in a dose-dependent manner,did not affect,0.00028 µM,0.00024 µM,81.1%,< 0.0046 µM,52.9%,60.0%,< 0.0046 µM,14.7%,80.6%,1.2%,32.7%,"rank of potency in soft agar assay ([8]; order K103, K102, K101A, K101E): Most potent; phospho-PKC (pan) levels [9]: reduction; EC50 [14, 22]: > 10 µM; EC50 [15, 23]: < 0.0046 µM; EC50 [16, 24]: > 10 µM; EC50 [17, 25]: > 0.5 µM; EC50 [17, 26]: 0.0013 µM"
"CC(=O)O[C@@]12C[C@@H](C)[C@@]3(O)[C@@H](C=C(CO)C[C@]4(O)C(=O)C(C)=C[C@@H]34)[C@@H]1C2(C)C [Compound K101A, 12-deoxyphorbol 13-acetate]",40.11%,83.6%,10.1%,12.8%,32.39%,27.7%,7.1%,reduced the number of colonies formed by A549 cells in a dose-dependent manner,dose-dependent reduction,0.3 µM,0.18 µM,74.4%,0.87 µM,51.8%,61.3%,0.47 µM,4.4%,76.0%,0.0%,32.4%,"phospho-PKC (pan) level ([9]; 0.5 μM): without affecting; phospho-PKC (pan) levels [9]: reduction; LIF protein level ([10]; 0.5 μM): lowered; EC50 [12, 27]: 0.3 µM; EC50 [13, 28]: 0.4 µM; EC50 [14, 22]: > 30 µM; EC50 [15, 23]: 0.49 µM; EC50 [15, 29]: 0.27 µM; EC50 [16, 24]: > 30 µM; EC50 [17, 25]: > 30 µM; EC50 [17, 26]: 0.27 µM"
CC(=O)OCC1=CC2C3C(C)(C)C3(OC(C)=O)CC(C)C2(O)C2C=C(C)C(=O)C2(O)C1 (centres unmarked) [Compound K101E],38.87%,85.8%,26.8%,31.7%,32.25%,35.6%,25.4%,reduced the number of colonies formed by A549 cells in a dose-dependent manner,did not affect,,,61.4%,,51.6%,63.4%,,1.3%,78.7%,0.0%,35.2%,"EC50 ([11]; MiaPaCa-2 (K-RAS: G12C), absolute EC50, read-out: Ab EC50): 1.88 µM; EC50 ([11]; MiaPaCa-2, relative EC50, read-out: Re EC50): 0.86 µM; EC50 ([12]; THP1 (N-RAS: G12D), absolute EC50, read-out: Ab EC50): 3.6 µM; EC50 ([12]; THP1, relative EC50, read-out: Re EC50): 1.02 µM; EC50 ([13]; HL60 (N-RAS: Q61L), absolute EC50, read-out: Ab EC50): 3.05 µM; EC50 ([13]; HL60, relative EC50, read-out: Re EC50): 1.92 µM; EC50 ([14]; LS180 (K-RAS: G12D), absolute EC50, read-out: Ab EC50): > 30 µM; EC50 ([15]; A549 (K-RAS: G12S), absolute EC50, read-out: Ab EC50): 2.64 µM; EC50 ([15]; A549, relative EC50, read-out: Re EC50): 1.56 µM; EC50 ([16]; SW620 (K-RAS: G12V), absolute EC50, read-out: Ab EC50): > 30 µM; EC50 ([17]; AsPC-1 (K-RAS: G12D), absolute EC50, read-out: Ab EC50): > 30 µM; EC50 ([17]; AsPC-1, relative EC50, read-out: Re EC50): 2.78 µM"
CC(=O)O[C@H]1C(=O)[C@@]2(C)[C@H]([C@H](OC(=O)c3ccccc3)[C@]3(O)C[C@H](OC(=O)[C@H](O)[C@@H](NC(=O)c4ccccc4)c4ccccc4)C(C)=C1C3(C)C)[C@]1(OC(C)=O)CO[C@@H]1C[C@@H]2O [Paclitaxel],91.93%,97.4%,96.5%,93.8%,98.98%,80.6%,81.0%,,,0.0034 µM,0.0033 µM,,0.0083 µM,91.2%,98.7%,0.0052 µM,67.1%,86.0%,92.1%,60.9%,"EC50 [12, 27]: 0.0076 µM; EC50 [13, 28]: 0.0052 µM; EC50 [14, 22]: 0.014 µM; EC50 ([14]; Homo sapiens, LS180, relative EC50, read-out: Re EC50): 0.0088 µM; EC50 [15, 23]: 0.0026 µM; EC50 [15, 29]: 0.0023 µM; EC50 [16, 24]: 0.012 µM; EC50 ([16]; Homo sapiens, SW-620, SW620, relative EC50, read-out: Re EC50): 0.0094 µM; EC50 [17, 25]: 0.01 µM; EC50 [17, 26]: 0.0038 µM"
